Laboratory results taken from the CATMoS acute toxicity set (Mansouri et al. 2021).

Assay: GHS categories as the set defines them, by LD50: 1 up to 5, 2 up to 50, 3 up to 300, 4 up to 2000, 5 above 2000 mg/kg
Details: rat; in vivo; po
Source text: […]The data set underlying the modeling effort for this project was initially compiled by NICEATM and U.S. EPA’s CCTE. Briefly, LD50 data were collected from rat acute oral systemic toxicity tests, including limit tests, ranges/confidence intervals, and discrete LD50 values. The full data set included 21,200 LD50 entries for 15,688 substances. […] Data were reviewed to ensure that LD50 values with obvious errors in the extracted data such as unit conversion errors (e.g., comma and decimal separator misplacements) were either fixed or removed. After this review, 16,209 LD50 values remained. Many of the chemicals represented had multiple LD50 entries, requiring that a single representative value per Chemical Abstracts Service Registry Number (CASRN) identifier be defined to facilitate modeling efforts. Based on ATWG feedback and to define the representative LD50 as a protective value while accounting for the distribution across multiple LD50s, the median of the lowest quartile was computed using only discrete LD50 values (omitting limit test data and range and confidence interval data). A detailed summary of the data compilation is available online on the NICEATM webpage dedicated to the collaborative modeling project (NTP 2020).
[…][…] For categorical designations, limit test and range/confidence interval LD50 data were integrated wherever possible. As such, the number of chemicals with end point values/calls varies across the modeling end points (Table 3) based on whether chemicals had representative LD50 values and/or other data. If a chemical had both, the representative value was used to determine categorical calls rather than limit test data. Some data were useable only for certain end points and categories depending on the thresholds. For example, ranges that spanned multiple hazard categories were considered only for the binary (very toxic/nontoxic) end points and omitted from rendering a determination for hazard category assignment.
[…]The final data set comprising 11,992 chemicals was split into training and evaluation sets […], respectively. This process was performed semirandomly by ordering chemicals based on the five end points (categorical and continuous LD50 values) and partitioning every fourth record into the evaluation set accordingly. This approach was taken to ensure an equivalent distribution of the LD50 values and the different hazard categories between the training and the evaluation sets without supervised sampling of the chemicals based on structures (Figure 1A). The sources of the chemical structures were also kept equivalent between the two sets, with chemical structures obtained from DSSTox, being the highest quality, representing over 75% of each set (Figure 1B).

SMILES	GHS category
C/C(=C\CO)CCC[C@H](C)CCC[C@H](C)CCCC(C)C	5
CC=CC(=O)OCCCCCC	5
CCOC(=O)CNc1nc(Cl)nc(NC(C)C)n1	5
CCCS(=O)(=O)Nc1ccc(F)c(C(=O)O)c1F	5
FC(F)CCl	5
CO[Si](C)(C)CCl	4
CC1CCC2C(C)(C)C3CC12CC1OC13C (centres undefined)	5
O=C(CCS)OCC(COC(=O)CCS)(COC(=O)CCS)COC(=O)CCS	4
CCC/C=C/COC(=O)CC	5
CC(C)(C1CCCO1)C1CCCO1 (centres undefined)	4
O=C(O)CNC(c1ccccc1)c1ccc(Cl)c(Cl)c1 (centres undefined)	4
CCOCc1nc(=O)c2nccnc2[nH]1	5
CC(C)C1OCCN1CCOC(=O)NCCCCCCNC(=O)OCCN1CCOC1C(C)C (centres undefined)	5
CS/C(C)=N/O	4
CCC(O)=C1C(=O)CC(C(=O)O)CC1=O (centres undefined)	5
O=[N+]([O-])c1ccc2c(c1)COP(=S)(N1CCOCC1)O2 (centres undefined)	3
CC=CC(=O)OC/C=C(\C)CCC=C(C)C	5
c1ccc([Si]2(c3ccccc3)O[Si](c3ccccc3)(c3ccccc3)O[Si](c3ccccc3)(c3ccccc3)O[Si](c3ccccc3)(c3ccccc3)O2)cc1	5
COc1ccc([C@@H]2CC(=O)c3c(O)cc(O[C@@H]4O[C@H](CO[C@@H]5O[C@@H](C)[C@H](O)[C@@H](O)[C@H]5O)[C@@H](O)[C@H](O)[C@H]4O)cc3O2)cc1O	5
COC[C@H]1CO[C@@](Cn2ccnc2)(c2cc3ccccc3o2)O1	4
Nc1nccnc1C(=O)O	5
CCCC(=O)O[C@]1(C(=O)COC(C)=O)CC[C@H]2[C@@H]3C[C@H](F)C4=CC(=O)C=C[C@]4(C)[C@@]3(F)[C@@H](O)C[C@@]21C	5
NC(=O)N(CO)CO	5
CCOc1ccc(C(C)(C)COCc2cccc(Oc3ccccc3)c2)cc1	5
CCC=CCCOC(=O)C(C)C	5

SMILES	GHS category
NC(=O)Oc1ccccc1C(=O)Oc1ccccc1Cl	5
COP(=O)(OC)Oc1ccc(Cl)cc1Cl	3
NC(=O)Nc1ccc(Cl)c(Cl)c1	4
CNCC(O)CO (centres undefined)	5
CCC(COC(=O)c1cc(OC)c(OC)c(OC)c1)(c1ccccc1)N(C)C (centres undefined)	5
FC(Cl)C(F)(F)C(F)(F)Cl (centres undefined)	5
C#CCN(C(C)=O)C(=O)Oc1cccc2c1OC(C)(C)O2	4
C[C@]12C[C@H]3O[C@H]3CC1CCC1C2CC[C@]2(C)C(=O)[C@@H](N3CCCC3)CC12 (some centres undefined)	5
C/C1=C\[C@@H](C)C/C=C/[C@H]2[C@@H]3O[C@]3(C)[C@@H](C)[C@H]3[C@H](Cc4c[nH]c5ccccc45)NC(=O)[C@]32C(=O)/C=C/C(=O)[C@@H]1O	4
CSCCC(NC(=O)C(N)Cc1c[nH]c2ccccc12)C(=O)NC(CC(=O)O)C(=O)NC(Cc1ccccc1)C(N)=O (centres undefined)	5
CCCCCCCCCCCCCCCC(=O)Nc1cc(Cl)c(CC)c(Cl)c1O	5
CC(C)(c1cc(Br)c(O)c(Br)c1)c1cc(Br)c(O)c(Br)c1	5
COc1ccc(C(=O)c2cccc(C)c2)cc1C	5
CCCC(=O)c1ccc(N)c(O)c1	5
COC(=O)c1ccc(C(=O)Nc2cc(Cl)ccc2Cl)cc1N	4
CCCCCCCCC=CCCCCCCCCCCCC(=O)NCCCN(C)C	5
CC(C)(C)C1CCC(OC(=O)Cl)CC1 (centres undefined)	5
CCCCC1C(=O)N(c2ccccc2)N(c2ccc(S(C)(=O)=O)cc2)C1=O (centres undefined)	4
CC(C)(C)OP(=O)(O)OC(C)(C)C	5
CCCCCCCCCCCCCCCC(=O)NCC(=O)O	5
COc1ccc(C=C(C(=O)Nc2ccccc2C(=O)O)C(=O)Nc2ccccc2C(=O)O)cc1OC	5
CC1(C(O)CO)OC(c2ccc(Cl)cc2)OC2COC(c3ccc(Cl)cc3)OC21 (centres undefined)	5
CC1Oc2cc(C(=O)C=Cc3ccc(Cl)cc3)ccc2N(C)C1=O (centres undefined)	5
O=CC(O)C(O)C(O)C(O)COC1OC(CO)C(O)C(O)C1O (centres undefined)	4
